# Where two headings read alike, the source gives them in different places.
# How the values were obtained:
# [1] = system: duck hepatitis B virus (DHBV); settings: 60 minutes, 20° C., Reed and Muench
# Method: This model uses primary duck hepatocytes (PDHs) as host (Pugh et al., 1999). We isolated and maintained PDHs from less than one week-old seronegative White Pekin ducklings (Anas dornesticus) with modifications from previous procedures (Berry and Friend, 1969, Seglen. 1976, Pugh and Summers, 1989, Pugh et al., 2000, Tuttleman et al., 1986). Briefly, ducks were euthanized by exposing them to C02 and livers were perfused twice via the atrium of the heart with approximately 200 mL each of two solutions. The first solution consisted of SWIM's S-77 medium (Sigma) supplemented with 0.5 mmol/L EGTA, 2 mmol/L Hepes (pH 7.45) and 50 ug/mL penicillin and streptomycin (Biofluids, Rockville, Md.). The second solution contained SWIM's S-77 medium supplemented with 2.5 mmol/L CaCl2, 0.5 mg of collagenase/mL (type I, Sigma, St. Louis) and 50 ug/mL penicillin and streptomycin. These perfusates were administered at approximately 15 mL/minute using a peristaltic pump and the temperature of the perftisate was adjusted to maintain the liver at 37° C. The liver was removed, minced with scissors and repeatedly mixed with a 25 mL pipette for hepatocyte dispersion into complete L-15 medium (Biofluids, Rockville, Md.) supplemented with 0.05-percent (w/v) sodium bicarbonate (Biofluids), 1 mmol/L glutamine (Biofluids), 20 mmol/L HEPES (Biofluids), 50 ug/mL penicillin and streptomycin (Biofluids), I (g/mL insulin (Sigma, St. Louis), and 10 (moi/L hydrocortisone-hemisuccinate (Sigma). Cells were filtered through sterile gauze, centrifuged at 50×g for 4 minutes, and the resulting cell pellet was washed three times with L-15 medium and resuspended in L-15 medium. 12-well plates were seeded with approximately two-mL of the cell suspension (ca. 10^5 cells). Media on the plated cells were aspirated every two days and replaced with fresh L-15 media.
# Serum of four week-old congenitally infected duckling served as the source of virus used in these experiments. Treated and control DHBV spiked red cell samples were serially diluted 10-fold in L-15 medium and one-mL volumes were subsequently inoculated into PDH monolayers in quadruplicate. The infected cultures were incubated at 37° C.+20° C. with 5+1% C02 overnight for virus attachment and entry. The inoculum was then removed, cell monolayers washed once with complete L-15 medium to remove excess red blood cells, and then each well was overlaid with approximately 2-mL of fresh L-15 medium. Infected monolayers were incubated an additional 10-14 days at 37(+20° C. with 5+1% C02, with media changes every 2 days.
# We detected the presence of DHB V-infected duck hepatocytes by an IFA. Briefly, the medium from the PDH monolayer was removed by aspiration, and the monolayers washed with agitation for 5-10 minutes with 1-2 mL of phosphate buffered saline (PBS). […]
# HIV = settings: CEM cells
# Method: This example describes one method of inactivation of the purified virus according to the invention by crosslinking of surface proteins. […] Titrations of the fixative were preformed above and below the concentration recommended by the CDC for inactivation of virus in biological fluids (May 8, 1992/41 (RR-8); 001 CDC Guidelines for the Performance of CD4+ T-Cell Determinations in Persons with Human Immunodeficiency Virus Infection). Initially, purified virus was slowly thawed at 2-8° C. for 6-8 hours to minimize lysis of the virus. Next, while on ice, virus was diluted with cold PBS to a final concentration of approximately 1×10^10 copies/mL (cp/mL). […] The reaction mixtures were then incubated at 2-8° C. for 60 minutes while gently rocking. […] After the addition of glycine the reactions were gently rocked for 2 hr. at 2-8° C. To remove glycine and any excess unquenched fixative each reaction mixture was then dialyzed (10-14K m.w. cutoff) against 1 L PBS (pH 7.4, 2-8° C.) for 4 changes. Dialyzed virus was then transferred into a 15 mL tube and centrifuged for 10 min. at 3,000×g to pellet any precipitated virus. A sample of each supernatant was then tested in cell culture for the presence of infectious virus.
# The modified virus produced as described in Example 2 was tested to ensure the process inactivated the virus. As an illustration, the CEM cell line, obtained from the American Type Culture Collection was used as a host cell for viral infectivity studies. Advantages of using this line are that establishment of in vitro HIV infection requires relatively few virions and that the infection is chronic rather than lytic, facilitating analysis. For these studies, infection is detected and followed using the ZeptoMetrix HIV p24 Antigen EIA (ZeptoMetrix, Buffalo N.Y.).
# CEM cells are cultured in RPMI-1640 containing 10% FBS in 24 well plates Cells are plated at 10^5 cells per well in a 1 ml volume and 100 ul of various dilutions of virus, either treated or untreated, are added to individual wells. Cultures are fed twice weekly by 50% media replacement and culture supernatants are assayed for HIV p24. All cultures initially contain HIV p24. However, in cultures where virus is noninfectious HIV p24 levels decrease over time eventually reaching background levels.
# Different dilutions (1:8,000, 1:80,000, and 1:800,000) of treated virus were then placed into cultures of CEM cells and p24 assays were performed on culture supernatants on days 3, 7, 10, and 14 post-inoculation. Data are expressed as pg/ml of HIV p24 protein in the culture supernatants. The standard curve for the p24 assay is linear from 7.8 pg/ml to 125 pg/ml. HIV p24 concentrations below 7.8 pg/ml are expressed as “<7.8 pg/ml” to indicate sensitivity of the assay, and values above 125 pg/ml are expressed as “>125 pg/ml” since the assay is nonlinear above 125 pg/ml.
substance,measurement,setting,value
paraformaldehyde,FFFUD50/mL (log10),[1]; paraformaldehyde column 1,0 FFFUD50/mL (log10)
same,FFFUD50/mL (log10),[1]; paraformaldehyde column 2,0 FFFUD50/mL (log10)
same,FFFUD50/mL (log10),[1]; paraformaldehyde column 3,0 FFFUD50/mL (log10)
same,FFFUD50/mL (log10),[1]; paraformaldehyde column 4,0 FFFUD50/mL (log10)
same,HIV p24 protein in culture supernatants,"HIV; 0.625% paraformaldehyde 60 min, treated HIV diluted 1:8,000, 3 days post-inoculation",71.8 pg/mL
same,HIV p24 protein in culture supernatants,"HIV; 0.625% paraformaldehyde 60 min, treated HIV diluted 1:8,000, 7 days post-inoculation",109 pg/mL
same,HIV p24 protein in culture supernatants,"HIV; 0.625% paraformaldehyde 60 min, treated HIV diluted 1:8,000, 10 days post-inoculation",22.9 pg/mL
same,HIV p24 protein in culture supernatants,"HIV; 0.625% paraformaldehyde 60 min, treated HIV diluted 1:8,000, 14 days post-inoculation",<7.8 pg/mL
same,HIV p24 protein in culture supernatants,"HIV; 0.625% paraformaldehyde 60 min, treated HIV diluted 1:80,000, 3 days post-inoculation",<7.8 pg/mL
same,HIV p24 protein in culture supernatants,"HIV; 0.625% paraformaldehyde 60 min, treated HIV diluted 1:80,000, 7 days post-inoculation",<7.8 pg/mL
same,HIV p24 protein in culture supernatants,"HIV; 0.625% paraformaldehyde 60 min, treated HIV diluted 1:80,000, 10 days post-inoculation",<7.8 pg/mL
same,HIV p24 protein in culture supernatants,"HIV; 0.625% paraformaldehyde 60 min, treated HIV diluted 1:80,000, 14 days post-inoculation",<7.8 pg/mL
same,HIV p24 protein in culture supernatants,"HIV; 0.625% paraformaldehyde 60 min, treated HIV diluted 1:800,000, 3 days post-inoculation",<7.8 pg/mL
same,HIV p24 protein in culture supernatants,"HIV; 0.625% paraformaldehyde 60 min, treated HIV diluted 1:800,000, 7 days post-inoculation",<7.8 pg/mL
same,HIV p24 protein in culture supernatants,"HIV; 0.625% paraformaldehyde 60 min, treated HIV diluted 1:800,000, 10 days post-inoculation",<7.8 pg/mL
same,HIV p24 protein in culture supernatants,"HIV; 0.625% paraformaldehyde 60 min, treated HIV diluted 1:800,000, 14 days post-inoculation",<7.8 pg/mL
same,HIV p24 protein in culture supernatants,"HIV; 1.25% paraformaldehyde 60 min, treated HIV diluted 1:8,000, 3 days post-inoculation",41.9 pg/mL
same,HIV p24 protein in culture supernatants,"HIV; 1.25% paraformaldehyde 60 min, treated HIV diluted 1:8,000, 7 days post-inoculation",34.2 pg/mL
same,HIV p24 protein in culture supernatants,"HIV; 1.25% paraformaldehyde 60 min, treated HIV diluted 1:8,000, 10 days post-inoculation",<7.8 pg/mL
same,HIV p24 protein in culture supernatants,"HIV; 1.25% paraformaldehyde 60 min, treated HIV diluted 1:8,000, 14 days post-inoculation",<7.8 pg/mL
same,HIV p24 protein in culture supernatants,"HIV; 1.25% paraformaldehyde 60 min, treated HIV diluted 1:80,000, 3 days post-inoculation",<7.8 pg/mL
same,HIV p24 protein in culture supernatants,"HIV; 1.25% paraformaldehyde 60 min, treated HIV diluted 1:80,000, 7 days post-inoculation",<7.8 pg/mL
same,HIV p24 protein in culture supernatants,"HIV; 1.25% paraformaldehyde 60 min, treated HIV diluted 1:80,000, 10 days post-inoculation",<7.8 pg/mL
same,HIV p24 protein in culture supernatants,"HIV; 1.25% paraformaldehyde 60 min, treated HIV diluted 1:80,000, 14 days post-inoculation",<7.8 pg/mL
same,HIV p24 protein in culture supernatants,"HIV; 1.25% paraformaldehyde 60 min, treated HIV diluted 1:800,000, 3 days post-inoculation",<7.8 pg/mL
same,HIV p24 protein in culture supernatants,"HIV; 1.25% paraformaldehyde 60 min, treated HIV diluted 1:800,000, 7 days post-inoculation",<7.8 pg/mL
same,HIV p24 protein in culture supernatants,"HIV; 1.25% paraformaldehyde 60 min, treated HIV diluted 1:800,000, 10 days post-inoculation",<7.8 pg/mL
same,HIV p24 protein in culture supernatants,"HIV; 1.25% paraformaldehyde 60 min, treated HIV diluted 1:800,000, 14 days post-inoculation",<7.8 pg/mL
same,HIV p24 protein in culture supernatants,"HIV; 2.5% paraformaldehyde 60 min, treated HIV diluted 1:8,000, 3 days post-inoculation",<7.8 pg/mL
same,HIV p24 protein in culture supernatants,"HIV; 2.5% paraformaldehyde 60 min, treated HIV diluted 1:8,000, 7 days post-inoculation",<7.8 pg/mL
same,HIV p24 protein in culture supernatants,"HIV; 2.5% paraformaldehyde 60 min, treated HIV diluted 1:8,000, 10 days post-inoculation",<7.8 pg/mL
same,HIV p24 protein in culture supernatants,"HIV; 2.5% paraformaldehyde 60 min, treated HIV diluted 1:8,000, 14 days post-inoculation",<7.8 pg/mL
same,HIV p24 protein in culture supernatants,"HIV; 2.5% paraformaldehyde 60 min, treated HIV diluted 1:80,000, 3 days post-inoculation",<7.8 pg/mL
same,HIV p24 protein in culture supernatants,"HIV; 2.5% paraformaldehyde 60 min, treated HIV diluted 1:80,000, 7 days post-inoculation",<7.8 pg/mL
same,HIV p24 protein in culture supernatants,"HIV; 2.5% paraformaldehyde 60 min, treated HIV diluted 1:80,000, 10 days post-inoculation",<7.8 pg/mL
same,HIV p24 protein in culture supernatants,"HIV; 2.5% paraformaldehyde 60 min, treated HIV diluted 1:80,000, 14 days post-inoculation",<7.8 pg/mL
same,HIV p24 protein in culture supernatants,"HIV; 2.5% paraformaldehyde 60 min, treated HIV diluted 1:800,000, 3 days post-inoculation",<7.8 pg/mL
same,HIV p24 protein in culture supernatants,"HIV; 2.5% paraformaldehyde 60 min, treated HIV diluted 1:800,000, 7 days post-inoculation",<7.8 pg/mL
same,HIV p24 protein in culture supernatants,"HIV; 2.5% paraformaldehyde 60 min, treated HIV diluted 1:800,000, 10 days post-inoculation",<7.8 pg/mL
same,HIV p24 protein in culture supernatants,"HIV; 2.5% paraformaldehyde 60 min, treated HIV diluted 1:800,000, 14 days post-inoculation",<7.8 pg/mL
same,HIV p24 protein in culture supernatants,"HIV; 5.0% paraformaldehyde 60 min, treated HIV diluted 1:8,000, 3 days post-inoculation",<7.8 pg/mL
same,HIV p24 protein in culture supernatants,"HIV; 5.0% paraformaldehyde 60 min, treated HIV diluted 1:8,000, 7 days post-inoculation",<7.8 pg/mL
same,HIV p24 protein in culture supernatants,"HIV; 5.0% paraformaldehyde 60 min, treated HIV diluted 1:8,000, 10 days post-inoculation",<7.8 pg/mL
same,HIV p24 protein in culture supernatants,"HIV; 5.0% paraformaldehyde 60 min, treated HIV diluted 1:8,000, 14 days post-inoculation",<7.8 pg/mL
same,HIV p24 protein in culture supernatants,"HIV; 5.0% paraformaldehyde 60 min, treated HIV diluted 1:80,000, 3 days post-inoculation",<7.8 pg/mL
same,HIV p24 protein in culture supernatants,"HIV; 5.0% paraformaldehyde 60 min, treated HIV diluted 1:80,000, 7 days post-inoculation",<7.8 pg/mL
same,HIV p24 protein in culture supernatants,"HIV; 5.0% paraformaldehyde 60 min, treated HIV diluted 1:80,000, 10 days post-inoculation",<7.8 pg/mL
same,HIV p24 protein in culture supernatants,"HIV; 5.0% paraformaldehyde 60 min, treated HIV diluted 1:80,000, 14 days post-inoculation",<7.8 pg/mL
same,HIV p24 protein in culture supernatants,"HIV; 5.0% paraformaldehyde 60 min, treated HIV diluted 1:800,000, 3 days post-inoculation",<7.8 pg/mL
same,HIV p24 protein in culture supernatants,"HIV; 5.0% paraformaldehyde 60 min, treated HIV diluted 1:800,000, 7 days post-inoculation",<7.8 pg/mL

# — patent publication US9120849B2 (priority 2000, dated 2015)
